# Results taken from US9682126B2, “Postprandial gastrokinetic agent” (ZERIA PHARMACEUTICAL CO., LTD., priority 2013, dated 2017).
# What was measured:
# Suncus murinus [1] = assay: Gastric motility in interdigestive period, sham-operated vs vagotomized (Example 2); assay type: in vivo; conditions: motilin 50 ng/kg/min iv over 10 minutes
# Procedure: Each of Suncus motilin (Scrum Inc., Tokyo, Japan) and human ghrelin (Asubio Pharma Co., Ltd., Hyogo, Japan) were dissolved in PBS containing 0.1% bovine serum albumin. Suncus murinus (male, outbred KAT strain, 7 to 15 weeks old, 60 to 100 g) was used for the experiment. Each animal was bred in a plastic cage provided with an empty can as a nest box under the following conditions: temperature at 23±2° C., illumination between 8:00 and 20:00, and free intake of commercial trout feed (SP, Nippon Formula Feed Mfg Co., Ltd., Yokohama, Japan). After 3 hours of fasting, Suncus murinus was anesthetized by an intraperitoneal injection of pentobarbital sodium (50 mg/kg). Through a midline incision, the stomach was exposed outside the body, and a force transducer was fixed via suture in the circular muscle direction of the body of stomach. The wire extending from the force transducer was inserted through the abdominal wall, passed under the skin, and exposed at the back of the neck. Thereafter, truncal vagotomy was performed. A lower portion of the esophagus was exposed, both branches of the vagus nerve were isolated, and about 3 mm of the vagus nerve was excised above the hepatic branch and the celiac branch. For sham-operated Suncus murinus, the vagus nerve was exposed, but not excised. An intravenous catheter was inserted in the right jugular, and extracorporeally fixed to the back. The catheter was filled with heparinized saline (100 units/mL) to prevent clotting. From 2 days after the operation, the gastric motility was recorded. Administration of motilin was initiated 10 minutes after completion of spontaneous phase III. Synthesized suncus motilin was continuously injected at 50 ng/kg/min over 10 minutes, and the continuously injected amount was 50 μL/100 g BW/min. Administration of ghrelin was initiated 10 minutes after completion of spontaneous phase II. […] Amplified analog signals were converted into digital signals by an analog-to-digital converter (ADC-20, Pico Technology Ltd, St Neots, UK), and the digital signals were recorded on a computer. Phase III contractions of MMC in conscious Suncus murinus were defined on the basis of those in dogs and humans (that is, clustered contractions with an amplitude of 8 g or more that lasts for 5 minutes or more). Gastric motility was quantitated using a motility index (MI). A motility index (MI) based on a drug was calculated using the following equation. MI (%)=A/B×100 A: AUC of contractions for 10 minutes during which the drug was administered B: […] Statistical analysis After ANOVA, Student's t test was performed.
# Suncus murinus [2] = assay: Postprandial gastric motility, force transducer on stomach, motility index MI (Example 1); assay type: in vivo; conditions: motilin 300 ng/kg iv after 10-min feed intake
# Procedure: Effects of administration of each of ghrelin and motilin and co-administration of ghrelin and motilin on postprandial gastric motility in Suncus murinus were studied. Each of Suncus motilin (Scrum Inc., Tokyo, Japan) and human ghrelin (Asubio Pharma Co., Ltd., Hyogo, Japan) was dissolved in phosphate buffered saline (PBS) containing 0.1% bovine serum albumin. Suncus murinus (male, outbred KAT strain, 8 to 9 weeks old, 73 to 90 g) was used for the experiment. Each animal was bred in a plastic cage provided with an empty can as a nest box under the following conditions: temperature at 23±2° C., illumination between 8:00 and 20:00, and free intake of commercial trout feed (SP, Nippon Formula Feed Mfg Co., Ltd., Yokohama, Japan). After 3 hours of fasting, Suncus murinus was anesthetized by an intraperitoneal injection of pentobarbital sodium (50 mg/kg). Through a midline incision, the stomach was exposed outside the body, and a force transducer was fixed via suture in the circular muscle direction of the body of stomach. […] Amplified analog signals were converted into digital signals by an analog-to-digital converter (ADC-20, Pico Technology Ltd, St Neots, UK), and the digital signals were recorded on a computer. […] Gastric motility was quantitated using a motility index (MI). A motility index (MI) based on a drug was calculated using the following equation. […]
smiles,measurement,setting,value
CC[C@H](C)[C@H](NC(=O)[C@@H]1CCCN1C(=O)[C@@H](NC(=O)[C@@H](N)Cc1ccccc1)C(C)C)C(=O)N[C@@H](Cc1ccccc1)C(=O)N[C@H](C(=O)N[C@@H](Cc1ccc(O)cc1)C(=O)NCC(=O)N[C@@H](CCC(=O)O)C(=O)N[C@@H](CC(C)C)C(=O)N[C@@H](CCC(N)=O)C(=O)N[C@@H](CCCNC(=N)N)C(=O)N[C@@H](CCSC)C(=O)N[C@@H](CCC(N)=O)C(=O)N[C@@H](CCC(=O)O)C(=O)N[C@@H](CCCCN)C(=O)N[C@@H](CCC(=O)O)C(=O)N[C@@H](CCCNC(=N)N)C(=O)N[C@@H](CC(N)=O)C(=O)N[C@@H](CCCCN)C(=O)NCC(=O)N[C@@H](CCC(N)=O)C(=O)O)[C@@H](C)O [motilin],motilin-induced phase III-like contractions,"Suncus murinus [1]; both sham-operated and vagotomized, 10 minutes after spontaneous phase III",phase III-like contractions were observed
same,"contraction duration due to motilin, sham-operated vs vagotomized",Suncus murinus [1]; phase I,a significant difference was not observed
same,"motility index (MI) during administration of motilin, sham-operated vs vagotomized",Suncus murinus [1]; phase I,a significant difference was not observed
same,contractions of the body of the stomach,Suncus murinus [2],did not induce contractions of the body of the stomach
